Measured values as given in ChEMBL document CHEMBL3885881, “DrugMatrix”.
Values joined by “and” are separate entries in the source; they are usually repeats but may differ in a detail not shown here. Identical values can stand only once.

Species on record: Rattus norvegicus
Assay type: toxicity, organism-based, Sprague-Dawley
Details: in vivo, sc, 24 h, route mini-PUMP - SUBCUTANEOUS, vehicle 100 % SALINE; for ALANINE AMINOTRANSFERASE / ALBUMIN / ALKALINE PHOSPHATASE / ASPARTATE AMINOTRANSFERASE / BLOOD UREA NITROGEN / CARBON DIOXIDE / CHLORIDE / CHOLESTEROL / CREATINE PHOSPHOKINASE / CREATININE / GLUCOSE / LACTATE DEHYDROGENASE / PHOSPHORUS / POTASSIUM / SODIUM / TOTAL BILIRUBIN / TOTAL PROTEIN / URIC ACID / LIPASE: tissue Plasma
[1] = 0 mg/kg, vehicle control, tissue Blood, dose level Control, time 1 day
[2] = 0 mg/kg, vehicle control, dose level Control, time 1 day
[3] = 2 mg/kg, tissue Blood, dose level High, time 1 day
[4] = 2 mg/kg, dose level High, time 1 day
[5] = […], tissue Blood, dose 4.2 mg/Kg, dose level M1, time 1 day
[6] = […], dose 4.2 mg/Kg, dose level M1, time 1 day

## CC(C)NCC(O)c1ccc(O)c(O)c1 (stereo not drawn) [ISOPROTERENOL]
[1]
  ABSOLUTE SEGMENTED NEUTROPHIL: 1753.5 CELLS/uL
  BASOPHIL: 0.4% and 0%
  EOSINOPHIL: 0.3% and 0.17%
  ERYTHROCYTE COUNT: 6.25 x10E6/uL and 5.64 x10E6/uL
  HEMATOCRIT: 41.8% and 34.52%
  HEMOGLOBIN: 13.33 G/DL and 12.68 G/DL
  LEUKOCYTE COUNT: 11.55 x10E3/uL and 13 x10E3/uL
  LYMPHOCYTE: 72.6% and 84.5%
  MEAN CORPUSCULAR HEMOGLOBIN: 21.37 pg and 22.5 pg
  MONOCYTE: 2.4% and 1.83%
  NEUTROPHIL: 23.4% and 13.5%
  NUCLEATED RED BLOOD CELLS: 0.17 /100WBC
  PLATELET COUNT: 1265.33 x10E3/uL and 679.17 x10E3/uL
[2]
  ALANINE AMINOTRANSFERASE: 40.33 u/L and 42.67 u/L
  ALBUMIN: 3.63 G/DL and 3.77 G/DL
  ALKALINE PHOSPHATASE: 385.33 u/L and 291.17 u/L
  ASPARTATE AMINOTRANSFERASE: 79.33 u/L and 74.5 u/L
  BLOOD UREA NITROGEN: 13.33 mg/dL and 15.33 mg/dL
  CARBON DIOXIDE: 40.67 mmol/L and 30 mmol/L
  CHLORIDE: 103 MEQ/L and 100.83 MEQ/L
  CHOLESTEROL: 86.33 mg/dL and 65.33 mg/dL
  CREATINE PHOSPHOKINASE: 190.33 u/L
  CREATININE: 0.4 mg/dL and 0.15 mg/dL
  GLUCOSE: 165.67 mg/dL and 179.83 mg/dL
  LACTATE DEHYDROGENASE: 103.33 u/L and 162.67 u/L
  PHOSPHORUS: 11.7 mg/dL and 12.2 mg/dL
  POTASSIUM: 5.5 MEQ/L and 5.73 MEQ/L
  SODIUM: 145 MEQ/L and 144.7 MEQ/L
  TOTAL BILIRUBIN: 0.27 mg/dL and 0.15 mg/dL
  TOTAL PROTEIN: 5.87 G/DL
  URIC ACID: 1 mg/dL and 1.93 mg/dL
[3]
  ABSOLUTE BASOPHIL: 13.3 cells/µL
  ABSOLUTE EOSINOPHIL: 56.7 cells/µL
  ABSOLUTE LYMPHOCYTE: 4960 cells/µL
  ABSOLUTE MONOCYTE: 150 cells/µL
  BASOPHIL: 0.2%
  EOSINOPHIL: 0.83%
  ERYTHROCYTE COUNT: 5.65 x10E6/uL
  HEMATOCRIT: 36.77%
  HEMOGLOBIN: 11.77 G/DL
  LEUKOCYTE COUNT: 6.69 x10E3/uL
  LYMPHOCYTE: 74.03%
  MEAN CORPUSCULAR HEMOGLOBIN: 20.8 pg
  MEAN CORPUSCULAR HEMOGLOBIN CONCENTRATION: 31.97 G/DL
  MEAN CORPUSCULAR VOLUME: 65.1 fL
  MONOCYTE: 2.3%
  NEUTROPHIL: 22.1%
  PLATELET COUNT: 1167.67 x10E3/uL
[4]
  ALANINE AMINOTRANSFERASE: 33 u/L
  ALBUMIN: 3.6 G/DL
  ALKALINE PHOSPHATASE: 400 u/L
  ASPARTATE AMINOTRANSFERASE: 86.67 u/L
  BLOOD UREA NITROGEN: 14.67 mg/dL
  CARBON DIOXIDE: 33 mmol/L
  CHLORIDE: 106.67 MEQ/L
  CHOLESTEROL: 105 mg/dL
  CREATINE PHOSPHOKINASE: 281.33 u/L
  CREATININE: 0.6 mg/dL
  GLUCOSE: 99.33 mg/dL
  LACTATE DEHYDROGENASE: 93 u/L
  LIPASE: 24.67 u/L
  PHOSPHORUS: 11.33 mg/dL
  POTASSIUM: 5.6 MEQ/L
  SODIUM: 146 MEQ/L
  TOTAL BILIRUBIN: 0.2 mg/dL
  TOTAL PROTEIN: 5.87 G/DL
  URIC ACID: 0.93 mg/dL
[5]
  ABSOLUTE EOSINOPHIL: 59.67 CELLS/uL
  ABSOLUTE LYMPHOCYTE: 9880 CELLS/uL
  ABSOLUTE MONOCYTE: 232.33 CELLS/uL
  ABSOLUTE SEGMENTED NEUTROPHIL: 3561.33 CELLS/uL
  BASOPHIL: 0%
  EOSINOPHIL: 0.33%
  ERYTHROCYTE COUNT: 5.17 x10E6/uL
  HEMATOCRIT: 30.7%
  HEMOGLOBIN: 11.47 G/DL
  LEUKOCYTE COUNT: 13.73 x10E3/uL
  LYMPHOCYTE: 71.67%
  MEAN CORPUSCULAR HEMOGLOBIN: 22.2 pg
  MEAN CORPUSCULAR HEMOGLOBIN CONCENTRATION: 37.33 G/DL
  MEAN CORPUSCULAR VOLUME: 59.43 fL
  MONOCYTE: 1.67%
  NEUTROPHIL: 26.33%
  NUCLEATED RED BLOOD CELLS: 0 /100WBC
  PLATELET COUNT: 1159 x10E3/uL
[6]
  ALANINE AMINOTRANSFERASE: 55.33 u/L
  ALBUMIN: 3.73 G/DL
  ALKALINE PHOSPHATASE: 326.67 u/L
  ASPARTATE AMINOTRANSFERASE: 83 u/L
  BLOOD UREA NITROGEN: 14 mg/dL
  CARBON DIOXIDE: 28.67 mmol/L
  CHLORIDE: 100.67 MEQ/L
  CHOLESTEROL: 89.67 mg/dL
  CREATININE: 0.13 mg/dL
  GLUCOSE: 154 mg/dL
  LACTATE DEHYDROGENASE: 126.67 u/L
  LIPASE: 8.67 u/L
  PHOSPHORUS: 14.57 mg/dL
  POTASSIUM: 6.55 MEQ/L
  SODIUM: 144.37 MEQ/L
  TOTAL BILIRUBIN: 0.1 mg/dL
  TOTAL PROTEIN: 6.03 G/DL
  URIC ACID: 2.43 mg/dL
